{"source": "paper PMC11222147", "about": "“Host defence peptide plectasin targets bacterial cell wall precursor lipid II by a calcium-sensitive supramolecular mechanism” (Nature Microbiology, 2024)", "test_system": "S. simulans 22", "test": "MIC assays under standard conditions", "assay_type": "cell-based, Staphylococcus simulans", "conditions": "Supplementary Table 1; cation-adjusted MHB, 37 °C, 16–20 h", "protocol": "Plectasin and analogues were serially diluted in cation-adjusted Mueller–Hinton broth (MHB) in round-bottom polypropylene 96-well plates (50 µl per well). Selected bacterial strains were grown from glycerol stocks on blood agar plates. Individual colonies were inoculated in TSB and incubated at 37 °C while shaking until OD600 reached 0.5. Bacterial suspensions were then diluted 100 times in cation-adjusted MHB and distributed (50 μl per well) over the microplate containing the diluted plectasin solutions. Plates were covered by a gas-permeable adhesive membrane and incubated at 37 °C while shaking. MICs were determined by visual inspection after 16–20 h (Staphylococcus) or 20–24 h (Streptococcus). For Streptococcus strains, the broth was additionally supplemented with 5% lysed horse blood, and the microplates were incubated under 5% CO2 atmosphere. In the assays, we used the following strains: S. simulans, S. pneumoniae serotype 8, S. pneumoniae ATCC6305 and Streptococcus pyogenes M3.", "note": "Where a SMILES comes first, the peptide text is derived from it. Bridges are numbered along the chain shown (N, C = ends)."}
{"smiles": "CC[C@H](C)[C@@H]1NC(=O)[C@H](CO)NC(=O)[C@H](CCCCN)NC(=O)[C@@H]2CSSC[C@@H](C(=O)N[C@@H](Cc3ccc(O)cc3)C(=O)O)NC(=O)[C@H](CCCCN)NC(=O)[C@@H]3CSSC[C@H](NC(=O)[C@H](CCC(N)=O)NC(=O)[C@H](CCSC)NC(=O)[C@H](CC(=O)O)NC(=O)[C@H](CC(=O)O)NC(=O)[C@H](CCC(=O)O)NC(=O)[C@H](CC(=O)O)NC(=O)[C@H](Cc4c[nH]c5ccccc45)NC(=O)[C@@H]4CCCN4C(=O)CNC(=O)[C@H](CC(N)=O)NC(=O)[C@@H](NC(=O)CNC(=O)[C@H](Cc4ccccc4)NC(=O)CN)CSSC[C@H](NC(=O)[C@H](Cc4ccc(O)cc4)NC(=O)CNC(=O)CNC(=O)[C@H](CCCCN)NC(=O)[C@H](C(C)C)NC(=O)CNC(=O)[C@H](CCCCN)NC1=O)C(=O)N[C@@H](C)C(=O)N[C@@H](CCCCN)C(=O)NCC(=O)NCC(=O)N[C@@H](Cc1ccccc1)C(=O)N[C@@H](C(C)C)C(=O)N3)C(=O)N[C@@H](Cc1c[nH]cn1)C(=O)N[C@@H](CC(N)=O)C(=O)N[C@@H](Cc1c[nH]cn1)C(=O)N2", "note": "[Y25V] (H-GFGCNGPWDEDDMQCHNHCKSIKGVKGGYCAKGGFVCKCY-OH; disulfide 4-30, 15-37, 19-39 (inferred); N-terminus and C-terminus assumed)", "values": [{"measurement": "Minimum inhibitory concentration, S. simulans", "result": "6,25 μg/mL"}]}
{"smiles": "CSCC[C@@H]1NC(=O)[C@H](CC(=O)O)NC(=O)[C@H](CC(=O)O)NC(=O)[C@H](CCC(=O)O)NC(=O)[C@H](CC(=O)O)NC(=O)[C@H](Cc2c[nH]c3ccccc23)NC(=O)[C@@H]2CCCN2C(=O)CNC(=O)[C@H](CC(N)=O)NC(=O)[C@@H](NC(=O)CNC(=O)[C@H](Cc2ccccc2)NC(=O)CN)CSSC[C@@H]2NC(=O)[C@H](Cc3ccc(O)cc3)NC(=O)CNC(=O)CNC(=O)[C@H](CCCCN)NC(=O)[C@H](Cc3ccc(O)cc3)NC(=O)CNC(=O)[C@H](CCCCN)NC(=O)[C@H](CC(C)C)NC(=O)[C@H](CO)NC(=O)[C@H](CCCCN)NC(=O)[C@@H]3CSSC[C@@H](C(=O)N[C@@H](Cc4ccc(O)cc4)C(=O)O)NC(=O)[C@H](CCCCN)NC(=O)[C@H](CSSC[C@H](NC(=O)[C@H](CCC(N)=O)NC1=O)C(=O)N[C@@H](Cc1c[nH]cn1)C(=O)N[C@@H](CC(N)=O)C(=O)N[C@@H](Cc1c[nH]cn1)C(=O)N3)NC(=O)[C@H](C(C)C)NC(=O)[C@H](Cc1ccccc1)NC(=O)CNC(=O)CNC(=O)[C@H](CCCCN)NC(=O)[C@H](C)NC2=O", "note": "[I22L] (H-GFGCNGPWDEDDMQCHNHCKSLKGYKGGYCAKGGFVCKCY-OH; disulfide 4-30, 15-37, 19-39 (inferred); N-terminus and C-terminus assumed)", "values": [{"measurement": "Minimum inhibitory concentration, S. simulans", "result": "1,56 μg/mL"}]}
{"smiles": "CC[C@H](C)[C@@H]1NC(=O)CNC(=O)[C@H](CCCCN)NC(=O)[C@H]([C@@H](C)CC)NC(=O)[C@H](CO)NC(=O)[C@H](CCCCN)NC(=O)[C@@H]2CSSC[C@@H](C(=O)N[C@@H](Cc3ccc(O)cc3)C(=O)O)NC(=O)[C@H](CCCCN)NC(=O)[C@@H]3CSSC[C@H](NC(=O)[C@H](CCC(N)=O)NC(=O)[C@H](CCSC)NC(=O)[C@H](CC(=O)O)NC(=O)[C@H](CC(=O)O)NC(=O)[C@H](CCC(=O)O)NC(=O)[C@H](CC(=O)O)NC(=O)[C@H](Cc4c[nH]c5ccccc45)NC(=O)[C@@H]4CCCN4C(=O)CNC(=O)[C@H](CC(N)=O)NC(=O)[C@@H](NC(=O)CNC(=O)[C@H](Cc4ccccc4)NC(=O)CN)CSSC[C@H](NC(=O)[C@H](Cc4ccc(O)cc4)NC(=O)CNC(=O)CNC(=O)[C@H](CCCCN)NC1=O)C(=O)N[C@@H](C)C(=O)N[C@@H](CCCCN)C(=O)NCC(=O)NCC(=O)N[C@@H](Cc1ccccc1)C(=O)N[C@@H](C(C)C)C(=O)N3)C(=O)N[C@@H](Cc1c[nH]cn1)C(=O)N[C@@H](CC(N)=O)C(=O)N[C@@H](Cc1c[nH]cn1)C(=O)N2", "note": "[Y25I] (H-GFGCNGPWDEDDMQCHNHCKSIKGIKGGYCAKGGFVCKCY-OH; disulfide 4-30, 15-37, 19-39 (inferred); N-terminus and C-terminus assumed)", "values": [{"measurement": "Minimum inhibitory concentration, S. simulans", "result": "6,25 μg/mL"}]}
{"smiles": "CC[C@H](C)[C@@H]1NC(=O)[C@H](CO)NC(=O)[C@H](CCCCN)NC(=O)[C@@H]2CSSC[C@@H](C(=O)N[C@@H](Cc3ccc(O)cc3)C(=O)O)NC(=O)[C@H](CCCCN)NC(=O)[C@@H]3CSSC[C@H](NC(=O)[C@H](CCC(N)=O)NC(=O)[C@H](CCSC)NC(=O)[C@H](CC(=O)O)NC(=O)[C@H](CC(=O)O)NC(=O)[C@H](CCC(=O)O)NC(=O)[C@H](CC(=O)O)NC(=O)[C@H](Cc4c[nH]c5ccccc45)NC(=O)[C@@H]4CCCN4C(=O)CNC(=O)[C@H](CC(N)=O)NC(=O)[C@@H](NC(=O)CNC(=O)[C@H](Cc4ccccc4)NC(=O)CN)CSSC[C@H](NC(=O)[C@H](Cc4ccc(O)cc4)NC(=O)CNC(=O)CNC(=O)[C@H](CCCCN)NC(=O)[C@H](CC(C)C)NC(=O)CNC(=O)[C@H](CCCCN)NC1=O)C(=O)N[C@@H](C)C(=O)N[C@@H](CCCCN)C(=O)NCC(=O)NCC(=O)N[C@@H](Cc1ccccc1)C(=O)N[C@@H](C(C)C)C(=O)N3)C(=O)N[C@@H](Cc1c[nH]cn1)C(=O)N[C@@H](CC(N)=O)C(=O)N[C@@H](Cc1c[nH]cn1)C(=O)N2", "note": "[Y25L] (H-GFGCNGPWDEDDMQCHNHCKSIKGLKGGYCAKGGFVCKCY-OH; disulfide 4-30, 15-37, 19-39 (inferred); N-terminus and C-terminus assumed)", "values": [{"measurement": "Minimum inhibitory concentration, S. simulans", "result": "3,13 μg/mL"}]}
{"smiles": "CSCC[C@@H]1NC(=O)[C@H](CC(=O)O)NC(=O)[C@H](CC(=O)O)NC(=O)[C@H](CCC(=O)O)NC(=O)[C@H](CC(=O)O)NC(=O)[C@H](Cc2c[nH]c3ccccc23)NC(=O)[C@@H]2CCCN2C(=O)CNC(=O)[C@H](CC(N)=O)NC(=O)[C@@H](NC(=O)CNC(=O)[C@H](Cc2ccccc2)NC(=O)CN)CSSC[C@@H]2NC(=O)[C@H](Cc3ccc(O)cc3)NC(=O)CNC(=O)CNC(=O)[C@H](CCCCN)NC(=O)[C@H](Cc3ccc(O)cc3)NC(=O)CNC(=O)[C@H](CCCCN)NC(=O)[C@H](CC(=O)O)NC(=O)[C@H](CO)NC(=O)[C@H](CCCCN)NC(=O)[C@@H]3CSSC[C@@H](C(=O)N[C@@H](Cc4ccc(O)cc4)C(=O)O)NC(=O)[C@H](CCCCN)NC(=O)[C@H](CSSC[C@H](NC(=O)[C@H](CCC(N)=O)NC1=O)C(=O)N[C@@H](Cc1c[nH]cn1)C(=O)N[C@@H](CC(N)=O)C(=O)N[C@@H](Cc1c[nH]cn1)C(=O)N3)NC(=O)[C@H](C(C)C)NC(=O)[C@H](Cc1ccccc1)NC(=O)CNC(=O)CNC(=O)[C@H](CCCCN)NC(=O)[C@H](C)NC2=O", "note": "[I22D] (H-GFGCNGPWDEDDMQCHNHCKSDKGYKGGYCAKGGFVCKCY-OH; disulfide 4-30, 15-37, 19-39 (inferred); N-terminus and C-terminus assumed)", "values": [{"measurement": "Minimum inhibitory concentration, S. simulans", "result": "> 50", "unit": "µg/mL"}]}
{"smiles": "CC[C@H](C)[C@@H]1NC(=O)[C@H](CO)NC(=O)[C@H](CCCCN)NC(=O)[C@@H]2CSSC[C@@H](C(=O)N[C@@H](Cc3ccc(O)cc3)C(=O)O)NC(=O)[C@H](CCCCN)NC(=O)[C@@H]3CSSC[C@H](NC(=O)[C@H](CCC(N)=O)NC(=O)[C@H](CCSC)NC(=O)[C@H](CC(=O)O)NC(=O)[C@H](CC(=O)O)NC(=O)[C@H](CCC(=O)O)NC(=O)[C@H](CC(=O)O)NC(=O)[C@H](Cc4c[nH]c5ccccc45)NC(=O)[C@@H]4CCCN4C(=O)CNC(=O)[C@H](CC(N)=O)NC(=O)[C@@H](NC(=O)CNC(=O)[C@H](Cc4ccccc4)NC(=O)CN)CSSC[C@H](NC(=O)[C@H](Cc4ccc(O)cc4)NC(=O)CNC(=O)CNC(=O)[C@H](CCCCN)NC(=O)[C@H](Cc4c[nH]cn4)NC(=O)CNC(=O)[C@H](CCCCN)NC1=O)C(=O)N[C@@H](C)C(=O)N[C@@H](CCCCN)C(=O)NCC(=O)NCC(=O)N[C@@H](Cc1ccccc1)C(=O)N[C@@H](C(C)C)C(=O)N3)C(=O)N[C@@H](Cc1c[nH]cn1)C(=O)N[C@@H](CC(N)=O)C(=O)N[C@@H](Cc1c[nH]cn1)C(=O)N2", "note": "[Y25H] (H-GFGCNGPWDEDDMQCHNHCKSIKGHKGGYCAKGGFVCKCY-OH; disulfide 4-30, 15-37, 19-39 (inferred); N-terminus and C-terminus assumed)", "values": [{"measurement": "Minimum inhibitory concentration, S. simulans", "result": "≤ 0.78", "unit": "µg/mL"}]}
{"smiles": "CSCC[C@@H]1NC(=O)[C@H](CC(=O)O)NC(=O)[C@H](CC(=O)O)NC(=O)[C@H](CCC(=O)O)NC(=O)[C@H](CC(=O)O)NC(=O)[C@H](Cc2c[nH]c3ccccc23)NC(=O)[C@@H]2CCCN2C(=O)CNC(=O)[C@H](CC(N)=O)NC(=O)[C@@H](NC(=O)CNC(=O)[C@H](Cc2ccccc2)NC(=O)CN)CSSC[C@@H]2NC(=O)[C@H](Cc3ccc(O)cc3)NC(=O)CNC(=O)CNC(=O)[C@H](CCCCN)NC(=O)[C@H](Cc3ccc(O)cc3)NC(=O)CNC(=O)[C@H](CCCCN)NC(=O)[C@H](C(C)C)NC(=O)[C@H](CO)NC(=O)[C@H](CCCCN)NC(=O)[C@@H]3CSSC[C@@H](C(=O)N[C@@H](Cc4ccc(O)cc4)C(=O)O)NC(=O)[C@H](CCCCN)NC(=O)[C@H](CSSC[C@H](NC(=O)[C@H](CCC(N)=O)NC1=O)C(=O)N[C@@H](Cc1c[nH]cn1)C(=O)N[C@@H](CC(N)=O)C(=O)N[C@@H](Cc1c[nH]cn1)C(=O)N3)NC(=O)[C@H](C(C)C)NC(=O)[C@H](Cc1ccccc1)NC(=O)CNC(=O)CNC(=O)[C@H](CCCCN)NC(=O)[C@H](C)NC2=O", "note": "[I22V] (H-GFGCNGPWDEDDMQCHNHCKSVKGYKGGYCAKGGFVCKCY-OH; disulfide 4-30, 15-37, 19-39 (inferred); N-terminus and C-terminus assumed)", "values": [{"measurement": "Minimum inhibitory concentration, S. simulans", "result": "1,56 μg/mL"}]}
